Results on 13 compounds are retold here after ChEMBL document CHEMBL3871282, “Neo-tanshinlactone D-ring modified novel analogues induce apoptosis in human breast cancer cell via DNA damage” (Bioorg Med Chem, 2017).

Each structure is given as a SMILES string. A value given as a limit tells only on which side of the number the result lay.

Data set [1] is described as follows: Cytotoxicity against human MCF7 ER positive, PR positive/negative,HER2 negative cells assessed as cell growth inhibition after 24 hrs by MTT assay. The data set is classed as functional, cell-based. The settings on record: MCF7, 24 h.
A short description of data set [2]: Cytotoxicity against human SKBR3 ER negative, PR negative,HER2 positive cells assessed as cell growth inhibition after 24 hrs by MTT assay. It counts as functional, cell-based. The settings on record: SK-BR-3, 24 h. On the technique in general: Tetrazolium dyes change colour on reduction, which living cells bring about.
Data set [3] can be described thus: Cytotoxicity against human MDA-MB-231 ER negative, PR negative,HER2 negative cells assessed as cell growth inhibition after 24 hrs by MTT assay. The data set is classed as functional, cell-based. The settings on record: MDA-MB-231, 24 h.
Data set [4] can be described thus: Cytotoxicity against human HCT116 cells assessed as cell growth inhibition after 24 hrs by MTT assay. It counts as functional, cell-based. The settings on record: HCT-116, 24 h.
The nature of data set [5]: Cytotoxicity against human HepG2 cells assessed as cell growth inhibition after 24 hrs by MTT assay. It counts as functional, cell-based. Particulars: HepG2, 24 h.
A short description of data set [6]: Cytotoxicity against human HeLa cells assessed as cell growth inhibition after 24 hrs by MTT assay. The data set is classed as functional, cell-based.
A short description of data set [7]: Cytotoxicity against human WI38 cells assessed as cell growth inhibition after 24 hrs by MTT assay. It counts as toxicity, cell-based, WI-38.
A short description of data set [8]: Cytotoxicity against human HaCaT cells assessed as cell growth inhibition after 24 hrs by MTT assay. It counts as toxicity, cell-based.
Data set [9] can be described thus: Cytotoxicity against human breast cancer cells assessed as cell growth inhibition after 3 days by SRB assay. It counts as functional, Cancer cell lines. (In general: In SRB staining, fixed cells bind dye roughly in proportion to their protein.)

The term IC50 denotes the concentration that gives 50% inhibition. In the case of `O=c1cc(OS(=O)(=O)c2ccc(F)cc2)c2ccc3ccccc3c2[nH]1`, the IC50 in data set [1] is 132 µM; in data set [2], 144 µM; in data set [3], 157 µM; in [4], 168 µM; in [5] it was greater than 200 µM; in data set [6] it was greater than 200 µM.

For `O=C(Oc1cc(=O)[nH]c2c1ccc1ccccc12)c1ccccc1`, the IC50 in data set [1] came out at 30.6 µM; in data set [2] it was 42.6 µM; in data set [3], 49.3 µM; in data set [4], 64 µM; in data set [5], 83.1 µM; in [6], 81 µM.

Turning to `O=c1cc(OCc2nc3ccccc3[nH]2)c2ccc3ccccc3c2[nH]1`, the IC50 in data set [1] is 0.0383 µM; in data set [2] it was 0.103 µM; in data set [3] it was 0.117 µM; in data set [4] it was 0.0672 µM; in data set [5], 44.2 µM; in data set [6] it was 34.9 µM. The IC50 at 24 h in [7] and in data set [8] was greater than 100 µM in each case.

On to `CC(C)CC(=O)Oc1cc(=O)[nH]c2c1ccc1ccccc12`, for which the IC50 in data set [1] stood at 11.9 µM; in [2] it was 39.8 µM; in data set [3] it was 57.4 µM; in data set [4], 27.6 µM; in data set [5], 73.1 µM; in data set [6], 45.4 µM.

Regarding `O=C(Oc1cc(=O)[nH]c2c1ccc1ccccc12)c1ccc(F)cc1F`, the IC50 in data set [1] was found to be 63.4 µM; in data set [2], 67.1 µM; in [3], 70.2 µM; in [4], 92.8 µM; in data set [5], 67.5 µM; in data set [6], 68.9 µM.

Take `O=c1cc(OCc2ccc([N+](=O)[O-])cc2)c2ccc3ccccc3c2[nH]1`: the IC50 in data set [1] was determined as 0.0665 µM; in [2], 0.153 µM; in data set [3], 0.181 µM; in [4], 0.0881 µM; in [5] it was 41.3 µM; in data set [6], 39.7 µM. Further, the half-maximal inhibitory concentration (IC50) at 24 h in [7] and in data set [8] was greater than 100 µM throughout.

On to `CCC(=O)Oc1cc(=O)[nH]c2c1ccc1ccccc12`, for which the IC50 came out at 20.9 µM in [1]; 30.6 µM in data set [2]; 34.5 µM in data set [3]; 52 µM in [4]; 55.1 µM in [5]; 59.2 µM in [6].

`COc1ccc(COc2cc(=O)[nH]c3c2ccc2ccccc23)cc1`: the IC50 was 0.0487 µM in data set [1]; 0.166 µM in data set [2]; 0.178 µM in [3]; 0.0752 µM in data set [4]; 42.2 µM in data set [5]; 42.7 µM in data set [6]. Moreover, the IC50 at 24 h in data set [7] and in data set [8] was greater than 100 µM each time.

`O=C(/C=C/c1ccc([N+](=O)[O-])cc1)Oc1cc(=O)[nH]c2c1ccc1ccccc12`: the IC50 in data set [1] turned out to be 37.9 µM; in data set [2], 38.4 µM; in data set [3], 43.9 µM; in data set [4], 76.1 µM; in [5], 99.1 µM; in [6], 90 µM.

As to `CCCC(=O)Oc1cc(=O)[nH]c2c1ccc1ccccc12`, the IC50 was found to be 11.3 µM in data set [1]; 31.1 µM in data set [2]; 38.2 µM in [3]; 23.3 µM in data set [4]; 35.2 µM in [5]; 62 µM in [6].

On to `O=C(Oc1cc(=O)[nH]c2c1ccc1ccccc12)c1ccc([N+](=O)[O-])cc1`, for which the IC50 in data set [1] turned out to be 45.9 µM; in [2], 56.4 µM; in data set [3] it was 69.4 µM; in data set [4], 84.1 µM; in data set [5], 103 µM; in [6] it was 85.3 µM.

`Cc1cccc2c1ccc1c3occ(C)c3c(=O)oc21`: the GI in data set [9] worked out at 9.65 µM.

With `O=c1cc(OS(=O)(=O)c2ccc(C(F)(F)F)cc2)c2ccc3ccccc3c2[nH]1`, the IC50 in [1] was 120 µM; in data set [2], 131 µM; in data set [3] it was 139 µM; in data set [4], 150 µM; in [5] it was greater than 200 µM; in [6], greater than 200 µM.
